According to patent US20210228562A1, “IRAK DEGRADERS AND USES THEREOF” (Kymera Therapeutics, Inc., priority 2019, published 2021):
pIC50: −log10 of the molar value.

Each compound was assayed against T1, IRAK4 (Homo sapiens, UniProt Q9NWZ3) (assay: IRAK4 MSD Degradation in OCI-LY10). Conditions: OCI-LY10 cells, 24 hrs incubation; read-out: IRAK4 degradation in OCI-LY10 at 24 hrs: DC50.
T1 construct: endogenous in cells; host or cells: OCI-LY10
T1 sequence (Q9NWZ3 1-460): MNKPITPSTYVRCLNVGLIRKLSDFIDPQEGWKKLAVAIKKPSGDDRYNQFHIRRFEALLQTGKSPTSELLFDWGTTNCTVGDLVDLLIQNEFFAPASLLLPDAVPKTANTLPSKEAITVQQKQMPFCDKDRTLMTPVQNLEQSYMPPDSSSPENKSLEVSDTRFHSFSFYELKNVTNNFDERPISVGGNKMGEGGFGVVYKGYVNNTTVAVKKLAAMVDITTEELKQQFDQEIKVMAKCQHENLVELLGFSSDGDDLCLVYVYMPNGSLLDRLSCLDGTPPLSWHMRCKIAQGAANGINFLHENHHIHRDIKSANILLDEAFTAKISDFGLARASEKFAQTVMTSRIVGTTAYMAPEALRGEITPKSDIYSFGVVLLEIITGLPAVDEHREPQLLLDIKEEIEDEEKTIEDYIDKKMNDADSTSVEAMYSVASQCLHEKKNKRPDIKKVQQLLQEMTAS
Format: cell-based
Method: Degradation of IRAK4 in OCI-LY10 was quantitatively measured using Meso Scale Discovery technology. OCI-LY10 cells were seeded in 96-well plates (Corning 3799) with a density of 300,000 cells per well in 100 μL fresh media. Compounds were then added to the assay plates with a final top concentration of 1 to 10 μM in a 1:3 dilution series with total of 8 doses. The assay plates were then incubated for 4 to 24 hours at 37° C. under 5% CO2. The assay plates were then centrifuged for 5 minutes and the cell pellets were treated with 100 μL/well RIPA lysis buffer (Boston BioProducts BP-115D) with proteinase inhibitors. To prepare MSD assay plates (Meso Scale Discovery Catalog number L15XA-3), the plates were coated with 2 μg/mL capture antibody (mouse Anti-IRAK4 antibody [2H9], ab119942) in PBS, at 40 μL/well. The plates were then incubated overnight at 4° C., washed 3 times with 150 μL/well TBST buffer (Cell Signaling Technology, Catalog number 9997S) and blocked with 150 μL/well blocking buffer (Meso Scale Discovery Catalog number R93BA-4). Cell lysates were then added to MSD assay plates and the plates were incubated at room temperature for 1 hour. The plates were then washed 3 times with 150 μL/well TBST buffer and 25 μL/well primary detection antibody (rabbit Anti-IRAK4 antibody [Y279], from Abcam. Catalog number ab32511, 1 μg/mL). The assay plates were then incubated at room temperature for 1 hour, washed 3 times with 150 μL/well TBST buffer and 25 μL/well secondary detection antibody, SULFO-TAG anti-rabbit antibody were added (anti rabbit antibody from Meso Scale Discovery, Catalog number R32AB-1, 1 μg/mL). The assay plates were then incubated at room temperature for 1 hour, washed 3 times with 150 μL/well TBST buffer, and 150 μL/well MSD reading buffer (Meso Scale Discovery catalog number R92TC-2) was added. The plates were then analyzed by a MSD reader (Meso Scale Discovery, Model Quick Plex SQ 120). The data was then analyzed by software Prism 7.0 from GraphPad and the dose-depended IRAK4 degradation were fit using a three-parameter logistic equation to calculate DC50.

Row | Compound | DC50 [nM]
1 | C[C@H](CNc1cccc2c1C(=O)N(C1CCC(=O)NC1=O)C2=O)C1CC2(C1)CN(C[C@H]1CC[C@H](c3nc4cc(C(C)(C)O)c(NC(=O)c5cccc(C(F)(F)F)n5)cc4s3)CC1)C2 (stereo partly shown) [I-31] | < 50
2 | C[C@@H](CNc1cccc2c1C(=O)N(C1CCC(=O)NC1=O)C2=O)C1CC2(C1)CN(C[C@H]1CC[C@H](c3nc4cc(C(C)(C)O)c(NC(=O)c5cccc(C(F)(F)F)n5)cc4s3)CC1)C2 (stereo partly shown) [I-32] | < 50
3 | Cc1cc(F)cc(C(=O)Nc2cc3sc([C@H]4CC[C@H](CN5CC6(CC(CCNc7cccc8c7C(=O)N(C7CCC(=O)NC7=O)C8=O)C6)C5)CC4)nc3cc2C(C)(C)O)n1 (stereo partly shown) [I-33] | < 50
4 | COc1cc2nc([C@H]3CC[C@H](CN4CCC5(CC4)CC(Nc4cccc6c4C(=O)N(C4CCC(=O)NC4=O)C6=O)C5)CC3)sc2cc1NC(=O)c1cnn2cccnc12 (stereo partly shown) [I-34] | < 50

The compounds below were run on OCI-LY10 cells (assay: CTG Cell Viability Assay - OCI-LY10). Conditions: Homo sapiens, 96 h, CellTiter-Glo, 4 days incubation.
Format: cell-based
Method: Compound-mediated viability effect on OCI-LY10 or SUDHL-2 was quantitatively determined using the CellTiter-Glo® Luminescent Cell Viability Assay kit from Promega (Catalog number G7570) following manufacturer's recommended procedures. Briefly, OCI-LY10 or SUDHL-2 cells were seeded into 384 well plates (Grenier Bio-One, Catalog number 781080) with a density of 10,000 cells per well. Compounds were then added to the assay plate with final top concentration of 10 μM and 1:3 dilution series with total of 9 doses. The final DMSO concentration was normalized to 0.2%. The assay plates were incubated at 37° C. for 4 days under 5% CO2. Then the assay plate was equilibrated at room temperature for 10 minutes. To determine cell viability, 30 μL CellTiter Glo reagent was added to each well and the assay plate was centrifuged at 1000 rpm for 30 second, incubated at room temperature for 10 min, and analyzed by detecting the luminescence using a multimode plate reader (EnVision 2105, PerkinElmer). The data was then analyzed by software Prism 7.0 from GraphPad and the dose response curves were fit using a three-parameter logistic equation to calculate IC50.

Row | Compound | pIC50
5 | C[C@H](CNc1cccc2c1C(=O)N(C1CCC(=O)NC1=O)C2=O)C1CC2(C1)CN(C[C@H]1CC[C@H](c3nc4cc(C(C)(C)O)c(NC(=O)c5cccc(C(F)(F)F)n5)cc4s3)CC1)C2 (stereo partly shown) [I-31] | > 7.30
6 | C[C@@H](CNc1cccc2c1C(=O)N(C1CCC(=O)NC1=O)C2=O)C1CC2(C1)CN(C[C@H]1CC[C@H](c3nc4cc(C(C)(C)O)c(NC(=O)c5cccc(C(F)(F)F)n5)cc4s3)CC1)C2 (stereo partly shown) [I-32] | 7.00 to 7.30
7 | Cc1cc(F)cc(C(=O)Nc2cc3sc([C@H]4CC[C@H](CN5CC6(CC(CCNc7cccc8c7C(=O)N(C7CCC(=O)NC7=O)C8=O)C6)C5)CC4)nc3cc2C(C)(C)O)n1 (stereo partly shown) [I-33] | > 7.30
8 | COc1cc2nc([C@H]3CC[C@H](CN4CCC5(CC4)CC(Nc4cccc6c4C(=O)N(C4CCC(=O)NC4=O)C6=O)C5)CC3)sc2cc1NC(=O)c1cnn2cccnc12 (stereo partly shown) [I-34] | 7.00 to 7.30

What follows are compounds tested against T2, Ikaros (protein product of gene IKZF1) (Homo sapiens, UniProt Q13422+Q96SW2) (assay: Quantification of Ikaros degradation in OCI-LY10 cells (quantitative immunoblotting)). Conditions: 6 h treatment.
T2 construct: endogenous in cells; host or cells: OCI-LY10
T2 sequence (Q13422 whole entry): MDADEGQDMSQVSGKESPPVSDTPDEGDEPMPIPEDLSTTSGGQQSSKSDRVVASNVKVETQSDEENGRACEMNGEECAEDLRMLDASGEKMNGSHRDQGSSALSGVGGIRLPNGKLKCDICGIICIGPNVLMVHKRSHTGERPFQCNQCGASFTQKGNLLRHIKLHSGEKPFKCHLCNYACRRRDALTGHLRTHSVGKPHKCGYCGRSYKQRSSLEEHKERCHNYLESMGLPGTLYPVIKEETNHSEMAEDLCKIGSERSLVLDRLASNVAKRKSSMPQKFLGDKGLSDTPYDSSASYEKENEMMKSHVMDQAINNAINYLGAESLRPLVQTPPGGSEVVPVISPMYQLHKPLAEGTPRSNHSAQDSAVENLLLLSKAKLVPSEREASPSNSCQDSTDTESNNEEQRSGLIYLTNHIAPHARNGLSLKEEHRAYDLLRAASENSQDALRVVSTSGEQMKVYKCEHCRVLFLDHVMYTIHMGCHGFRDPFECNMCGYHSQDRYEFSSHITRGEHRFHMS
T2 sequence (Q96SW2 whole entry): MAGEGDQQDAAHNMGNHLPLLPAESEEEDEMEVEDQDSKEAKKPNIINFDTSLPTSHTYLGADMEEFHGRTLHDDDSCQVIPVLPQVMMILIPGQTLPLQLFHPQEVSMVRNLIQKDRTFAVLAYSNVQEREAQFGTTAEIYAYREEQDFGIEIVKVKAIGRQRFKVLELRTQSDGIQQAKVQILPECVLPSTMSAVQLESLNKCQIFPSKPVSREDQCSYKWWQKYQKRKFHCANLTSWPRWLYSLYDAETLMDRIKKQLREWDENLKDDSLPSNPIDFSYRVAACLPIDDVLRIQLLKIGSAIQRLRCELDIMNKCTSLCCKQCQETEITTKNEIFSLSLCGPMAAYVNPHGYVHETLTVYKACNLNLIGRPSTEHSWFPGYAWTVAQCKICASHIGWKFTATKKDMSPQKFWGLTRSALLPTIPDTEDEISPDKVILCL
T2 sequence (Q16531 whole entry partner): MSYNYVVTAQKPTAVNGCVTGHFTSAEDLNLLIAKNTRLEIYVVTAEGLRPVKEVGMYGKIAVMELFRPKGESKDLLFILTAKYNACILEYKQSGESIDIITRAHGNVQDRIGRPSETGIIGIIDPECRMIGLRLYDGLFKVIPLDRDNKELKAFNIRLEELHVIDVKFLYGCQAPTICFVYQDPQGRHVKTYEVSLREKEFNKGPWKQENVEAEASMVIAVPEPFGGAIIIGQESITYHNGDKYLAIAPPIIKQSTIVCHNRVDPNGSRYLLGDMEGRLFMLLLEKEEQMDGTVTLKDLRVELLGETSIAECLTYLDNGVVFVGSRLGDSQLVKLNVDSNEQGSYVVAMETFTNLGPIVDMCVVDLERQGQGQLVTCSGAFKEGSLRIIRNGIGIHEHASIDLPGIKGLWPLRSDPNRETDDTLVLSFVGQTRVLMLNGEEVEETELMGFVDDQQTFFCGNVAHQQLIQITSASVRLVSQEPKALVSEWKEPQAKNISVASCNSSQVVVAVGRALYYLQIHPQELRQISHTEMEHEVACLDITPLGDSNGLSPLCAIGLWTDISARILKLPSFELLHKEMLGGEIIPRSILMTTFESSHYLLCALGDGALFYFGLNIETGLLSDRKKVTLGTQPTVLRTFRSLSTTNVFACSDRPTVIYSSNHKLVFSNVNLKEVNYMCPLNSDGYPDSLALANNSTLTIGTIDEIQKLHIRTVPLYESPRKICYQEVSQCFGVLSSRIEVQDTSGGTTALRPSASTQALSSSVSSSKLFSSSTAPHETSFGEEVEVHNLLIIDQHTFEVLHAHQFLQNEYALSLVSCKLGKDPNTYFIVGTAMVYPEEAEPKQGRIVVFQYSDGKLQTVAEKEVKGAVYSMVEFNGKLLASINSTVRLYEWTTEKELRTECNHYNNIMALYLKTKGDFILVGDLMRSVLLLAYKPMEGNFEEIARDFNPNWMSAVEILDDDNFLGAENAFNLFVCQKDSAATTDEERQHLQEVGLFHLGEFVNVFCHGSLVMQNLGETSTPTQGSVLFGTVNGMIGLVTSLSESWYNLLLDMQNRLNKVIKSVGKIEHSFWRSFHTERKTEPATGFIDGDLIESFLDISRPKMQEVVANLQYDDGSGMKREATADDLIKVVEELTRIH
Format: cell-based
Method: (§1) Degradation of Ikaros (protein product of gene IKZF1) and Aiolos (protein product of gene IKZF3) were determined by quantitative immunoblotting as follows. OCI-LY10 cells, 2×10^6 cells/well, were treated with listed concentrations of IRAK4 degraders or control compounds in 6 well plates for 6 h. Cells were collected, washed with cold PBS, lysed in RIPA buffer (Boston BioProducts BP-115D) with protease/phosphatase inhibitor cocktail (Roche 05892791001/Roche 04906837001) and centrifuged at 13000 RPM for 20 min to precipitate insoluble material. The supernatant fraction was diluted in SDS-PAGE loading buffer (Beyotime Bio P0015) and 20 μL of each sample was resolved on 4-12% Bis-Tris SDS-PAGE gels (Novex, WG1402BOX). Resolved samples were transferred to nitrocellulose membranes by wet electro-transfer method at 250 mV for 1.5 h. The membrane was blocked with LICOR blocking buffer (LI-COR, 927-50000) for 1 hour, washed three times with TBST (CST #99975) for 5 minutes each and incubated with primary antibody prepared in block buffer with 0.1% Tween-20 (Solarbio, P8220) at 4° C. overnight. Ikaros antibody was rabbit monoclonal D6N9Y (CST #14859), at 1:1000 dilution. Aiolos antibody was rabbit monoclonal D1C1E (CST #15103), at 1:1000 dilution. Signal was normalized to mouse anti-beta-Actin monoclonal 8H10D10 (CST #3700) used at 1:10,000 dilution. After incubation in primary antibodies, membranes were washed three times with TBST, 5 minutes each, incubated with fluorescently labeled secondary antibodies anti-rabbit IgG (Licor, 926-32211) at 1:5000 dilution; anti-mouse IgG (LI-COR, 926-68070) at 1:5000 dilution, for 1 hour at RT. After incubation in secondary, membranes were washed three times with TBST, 5 minutes each and read on LICOR Odyssey imager. Data was reported as signal for Ikaros or Aiolos relative to signal for actin, and normalized to DMSO-treated control.

Row | Compound | DC50 [nM]
9 | C[C@H](CNc1cccc2c1C(=O)N(C1CCC(=O)NC1=O)C2=O)C1CC2(C1)CN(C[C@H]1CC[C@H](c3nc4cc(C(C)(C)O)c(NC(=O)c5cccc(C(F)(F)F)n5)cc4s3)CC1)C2 (stereo partly shown) [I-31] | < 50
10 | C[C@@H](CNc1cccc2c1C(=O)N(C1CCC(=O)NC1=O)C2=O)C1CC2(C1)CN(C[C@H]1CC[C@H](c3nc4cc(C(C)(C)O)c(NC(=O)c5cccc(C(F)(F)F)n5)cc4s3)CC1)C2 (stereo partly shown) [I-32] | < 50
11 | Cc1cc(F)cc(C(=O)Nc2cc3sc([C@H]4CC[C@H](CN5CC6(CC(CCNc7cccc8c7C(=O)N(C7CCC(=O)NC7=O)C8=O)C6)C5)CC4)nc3cc2C(C)(C)O)n1 (stereo partly shown) [I-33] | < 50
12 | COc1cc2nc([C@H]3CC[C@H](CN4CCC5(CC4)CC(Nc4cccc6c4C(=O)N(C4CCC(=O)NC4=O)C6=O)C5)CC3)sc2cc1NC(=O)c1cnn2cccnc12 (stereo partly shown) [I-34] | < 50

The compounds below were run against T3, Aiolos (protein product of gene IKZF3) (Homo sapiens, UniProt Q96SW2+Q9UKT9) (assay: Quantification of Aiolos degradation in OCI-LY10 cells (quantitative immunoblotting)). Conditions: 6 h treatment.
T3 construct: endogenous in cells; host or cells: OCI-LY10
T3 sequence (Q9UKT9 whole entry): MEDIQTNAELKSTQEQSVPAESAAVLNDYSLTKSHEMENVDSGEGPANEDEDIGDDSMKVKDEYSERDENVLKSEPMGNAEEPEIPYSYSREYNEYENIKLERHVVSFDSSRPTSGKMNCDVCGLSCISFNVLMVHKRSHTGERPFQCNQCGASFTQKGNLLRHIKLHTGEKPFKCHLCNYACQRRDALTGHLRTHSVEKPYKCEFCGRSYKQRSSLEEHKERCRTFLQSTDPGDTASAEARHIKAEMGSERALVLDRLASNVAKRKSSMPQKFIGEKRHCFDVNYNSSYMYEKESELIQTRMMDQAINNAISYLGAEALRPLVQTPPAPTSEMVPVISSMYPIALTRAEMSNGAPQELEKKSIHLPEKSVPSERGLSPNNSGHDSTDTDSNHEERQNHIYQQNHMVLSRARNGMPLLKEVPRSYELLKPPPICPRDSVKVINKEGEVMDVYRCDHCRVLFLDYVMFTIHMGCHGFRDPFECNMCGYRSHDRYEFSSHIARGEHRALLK
T3 sequence (Q96SW2 whole entry): as the sequence (Q96SW2 whole entry) above
T3 sequence (Q16531 whole entry partner): as the sequence (Q16531 whole entry partner) above
Format: cell-based
Method: as §1

Row | Compound | DC50 [nM]
13 | C[C@H](CNc1cccc2c1C(=O)N(C1CCC(=O)NC1=O)C2=O)C1CC2(C1)CN(C[C@H]1CC[C@H](c3nc4cc(C(C)(C)O)c(NC(=O)c5cccc(C(F)(F)F)n5)cc4s3)CC1)C2 (stereo partly shown) [I-31] | < 50
14 | C[C@@H](CNc1cccc2c1C(=O)N(C1CCC(=O)NC1=O)C2=O)C1CC2(C1)CN(C[C@H]1CC[C@H](c3nc4cc(C(C)(C)O)c(NC(=O)c5cccc(C(F)(F)F)n5)cc4s3)CC1)C2 (stereo partly shown) [I-32] | < 50
15 | Cc1cc(F)cc(C(=O)Nc2cc3sc([C@H]4CC[C@H](CN5CC6(CC(CCNc7cccc8c7C(=O)N(C7CCC(=O)NC7=O)C8=O)C6)C5)CC4)nc3cc2C(C)(C)O)n1 (stereo partly shown) [I-33] | < 50
16 | COc1cc2nc([C@H]3CC[C@H](CN4CCC5(CC4)CC(Nc4cccc6c4C(=O)N(C4CCC(=O)NC4=O)C6=O)C5)CC3)sc2cc1NC(=O)c1cnn2cccnc12 (stereo partly shown) [I-34] | < 50
